Data published in ChEMBL document CHEMBL3286148, “Aminoazabenzimidazoles, a novel class of orally active antimalarial agents” (J Med Chem, 2014).
≈ marks a conversion by molar mass, not a printed value. Calls of active or inactive are those of the source. The calls are words filed in the database; no cut-off is given here.

How the values were obtained:
[1] = Clearance in rat hepatocytes assessed per 1E6 cells; assay type: ADME, cell-based, Hepatocyte; conditions: read-out: CLH
[2] = Selectivity index, ratio of IC50 for human A549 cells to IC50 for Plasmodium falciparum; assay type: toxicity, cell-based; conditions: read-out: Ratio IC50
[3] = target: Voltage-gated inwardly rectifying potassium channel KCNH2 (Homo sapiens, UniProt Q12809); test: Inhibition of human ERG
Plasmodium falciparum [4] = test: Antiplasmodial activity against Plasmodium falciparum Dd2 harboring CRT mutant; assay type: functional, organism-based
Plasmodium falciparum [5] = test: microbe, parasite or virus in culture; conditions: W2, 72 h
Description: Antiplasmodial activity against Plasmodium falciparum W2 after 72 hrs by SYBR I method

Plasmodium falciparum [6] = test: microbe, parasite or virus in culture; conditions: Dd2, 72 h
Description: Antiplasmodial activity against Plasmodium falciparum Dd2 after 72 hrs by SYBR I method

Plasmodium falciparum [7] = test: microbe, parasite or virus in culture; conditions: SB1, 72 h
Description: Antiplasmodial activity against Plasmodium falciparum SB1 after 72 hrs by SYBR I method

Plasmodium falciparum [8] = test: microbe, parasite or virus in culture; conditions: K1, 72 h
Plasmodium falciparum [9] = test: Antiplasmodial activity against Plasmodium falciparum Dd2; assay type: functional, organism-based
[10] = Clearance in mouse liver microsomes; assay type: ADME; conditions: read-out: CLH
Plasmodium falciparum [11] = test: Antiplasmodial activity against Plasmodium falciparum Dd2 harboring HSP90 mutant; assay type: functional, organism-based
Plasmodium falciparum [12] = test: microbe, parasite or virus in culture; conditions: 7G8, 72 h
Description: Antiplasmodial activity against Plasmodium falciparum 7G8 after 72 hrs by SYBR I method

Plasmodium falciparum [13] = test: microbe, parasite or virus in culture; conditions: NF54, 72 h
Plasmodium falciparum [14] = test: Antiplasmodial activity against Plasmodium falciparum Dd2 harboring CYTb-Qi mutant; assay type: functional, organism-based
Plasmodium falciparum [15] = test: Antiplasmodial activity against chloroquine and pyrimethamine-sensitive Plasmodium falciparum 3D7A assessed as parasite reduction ratio at 10 times IC50 after 48 hrs; assay type: functional, organism-based
Plasmodium falciparum [16] = test: Antiplasmodial activity against Plasmodium falciparum Dd2 harboring DHODH mutant; assay type: functional, organism-based
[17] = Clearance in human liver microsomes; assay type: ADME; conditions: read-out: CLH
Cytochrome P450 2D6 = Cytochrome P450 2D6 (Homo sapiens, UniProt P10635); test: Inhibition of CYP2D6 (unknown origin); assay type: ADME
Cytochrome P450 2C9 = Cytochrome P450 2C9 (Homo sapiens, UniProt P11712); test: Inhibition of CYP2C9 (unknown origin); assay type: ADME
Cytochrome P450 2C19 = Cytochrome P450 2C19 (Homo sapiens, UniProt P33261); test: Inhibition of CYP2C19 (unknown origin); assay type: ADME
Cytochrome P450 1A2 = target: T1, Cytochrome P450 1A2 (Homo sapiens, UniProt P05177); test: Inhibition of CYP1A2 (unknown origin); assay type: ADME
T1 sequence (P05177 whole entry): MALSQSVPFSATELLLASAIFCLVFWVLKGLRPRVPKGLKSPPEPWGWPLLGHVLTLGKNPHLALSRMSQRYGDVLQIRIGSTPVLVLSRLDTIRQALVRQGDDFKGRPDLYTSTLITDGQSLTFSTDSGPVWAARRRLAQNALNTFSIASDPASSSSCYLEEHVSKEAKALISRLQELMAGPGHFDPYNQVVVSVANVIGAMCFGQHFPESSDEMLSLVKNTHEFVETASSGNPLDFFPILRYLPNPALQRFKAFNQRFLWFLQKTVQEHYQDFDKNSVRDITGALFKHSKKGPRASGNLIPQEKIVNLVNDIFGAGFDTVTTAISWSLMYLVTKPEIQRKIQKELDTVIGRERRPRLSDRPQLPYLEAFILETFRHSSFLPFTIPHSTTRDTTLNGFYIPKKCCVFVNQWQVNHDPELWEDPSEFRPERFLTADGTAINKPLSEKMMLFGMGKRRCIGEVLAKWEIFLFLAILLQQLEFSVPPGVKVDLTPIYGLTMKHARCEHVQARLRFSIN

Cytochrome P450 3A4 = Cytochrome P450 3A4 (Homo sapiens, UniProt P08684); test: Inhibition of CYP3A4 (unknown origin); assay type: ADME
[18] = Fraction unbound in human plasma; assay type: ADME, cell-free
[19] = Lipophilicity, log D of the compound; assay type: physicochemical; conditions: octanol/water
[20] = Aqueous solubility of the compound; assay type: physicochemical; conditions: buffer

Voltage-gated inwardly rectifying potassium channel KCNH2, sequence (Q12809 whole entry): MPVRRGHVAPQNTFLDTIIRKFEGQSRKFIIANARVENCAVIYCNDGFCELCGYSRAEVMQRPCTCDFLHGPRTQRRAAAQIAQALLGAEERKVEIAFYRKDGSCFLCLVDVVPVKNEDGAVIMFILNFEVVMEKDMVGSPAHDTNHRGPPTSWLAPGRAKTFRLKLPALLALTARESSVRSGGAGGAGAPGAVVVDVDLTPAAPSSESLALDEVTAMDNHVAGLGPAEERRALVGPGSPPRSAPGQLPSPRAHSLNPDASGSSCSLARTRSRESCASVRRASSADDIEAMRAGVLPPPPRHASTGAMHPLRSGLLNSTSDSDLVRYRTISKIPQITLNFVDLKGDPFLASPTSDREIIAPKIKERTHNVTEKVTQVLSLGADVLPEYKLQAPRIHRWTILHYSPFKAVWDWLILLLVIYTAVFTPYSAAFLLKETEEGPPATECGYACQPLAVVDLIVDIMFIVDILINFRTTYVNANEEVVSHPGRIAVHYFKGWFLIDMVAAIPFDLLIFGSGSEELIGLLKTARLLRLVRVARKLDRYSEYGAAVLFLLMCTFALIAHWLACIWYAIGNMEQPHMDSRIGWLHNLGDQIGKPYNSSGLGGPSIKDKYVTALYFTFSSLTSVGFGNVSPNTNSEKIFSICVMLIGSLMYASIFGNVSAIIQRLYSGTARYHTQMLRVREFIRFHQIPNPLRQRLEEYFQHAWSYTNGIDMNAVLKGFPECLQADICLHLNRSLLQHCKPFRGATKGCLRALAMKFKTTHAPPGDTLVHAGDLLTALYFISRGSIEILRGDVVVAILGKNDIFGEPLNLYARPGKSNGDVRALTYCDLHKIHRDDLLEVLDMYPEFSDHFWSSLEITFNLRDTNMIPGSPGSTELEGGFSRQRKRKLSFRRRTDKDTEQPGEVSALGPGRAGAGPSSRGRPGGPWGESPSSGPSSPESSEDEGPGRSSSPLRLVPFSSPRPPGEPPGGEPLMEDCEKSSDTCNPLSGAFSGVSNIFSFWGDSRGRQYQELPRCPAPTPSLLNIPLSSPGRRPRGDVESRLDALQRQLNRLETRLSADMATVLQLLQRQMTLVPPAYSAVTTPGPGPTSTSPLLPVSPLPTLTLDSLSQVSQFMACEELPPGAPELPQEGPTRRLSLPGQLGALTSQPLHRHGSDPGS
Cytochrome P450 3A4, sequence (P08684 whole entry): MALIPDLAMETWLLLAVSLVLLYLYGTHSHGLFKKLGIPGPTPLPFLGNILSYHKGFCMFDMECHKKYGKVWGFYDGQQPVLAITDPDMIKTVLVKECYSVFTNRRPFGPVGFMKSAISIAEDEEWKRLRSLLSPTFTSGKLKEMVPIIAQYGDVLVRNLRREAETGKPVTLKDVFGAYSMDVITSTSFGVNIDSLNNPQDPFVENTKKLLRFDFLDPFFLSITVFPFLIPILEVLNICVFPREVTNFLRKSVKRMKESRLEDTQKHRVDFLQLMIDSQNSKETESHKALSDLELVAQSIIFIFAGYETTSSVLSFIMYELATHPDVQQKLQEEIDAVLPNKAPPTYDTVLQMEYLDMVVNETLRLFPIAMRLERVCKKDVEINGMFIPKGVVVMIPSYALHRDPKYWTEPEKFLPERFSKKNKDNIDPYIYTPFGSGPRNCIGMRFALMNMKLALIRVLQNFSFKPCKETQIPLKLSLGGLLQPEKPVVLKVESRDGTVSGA
Cytochrome P450 2D6, sequence (P10635 whole entry): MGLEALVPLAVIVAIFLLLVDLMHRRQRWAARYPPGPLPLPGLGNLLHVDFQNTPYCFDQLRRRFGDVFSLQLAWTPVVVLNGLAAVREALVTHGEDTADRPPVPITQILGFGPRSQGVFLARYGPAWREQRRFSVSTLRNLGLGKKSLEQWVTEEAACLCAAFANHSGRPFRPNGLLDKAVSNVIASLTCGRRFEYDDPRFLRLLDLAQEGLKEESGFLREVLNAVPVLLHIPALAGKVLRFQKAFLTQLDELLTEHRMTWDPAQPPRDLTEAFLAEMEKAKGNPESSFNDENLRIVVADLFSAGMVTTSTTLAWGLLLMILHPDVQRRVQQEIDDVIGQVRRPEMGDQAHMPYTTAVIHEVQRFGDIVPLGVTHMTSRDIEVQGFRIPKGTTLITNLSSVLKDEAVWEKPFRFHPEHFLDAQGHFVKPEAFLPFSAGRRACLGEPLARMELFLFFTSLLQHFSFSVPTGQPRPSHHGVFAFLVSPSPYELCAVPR
Cytochrome P450 2C19, sequence (P33261 whole entry): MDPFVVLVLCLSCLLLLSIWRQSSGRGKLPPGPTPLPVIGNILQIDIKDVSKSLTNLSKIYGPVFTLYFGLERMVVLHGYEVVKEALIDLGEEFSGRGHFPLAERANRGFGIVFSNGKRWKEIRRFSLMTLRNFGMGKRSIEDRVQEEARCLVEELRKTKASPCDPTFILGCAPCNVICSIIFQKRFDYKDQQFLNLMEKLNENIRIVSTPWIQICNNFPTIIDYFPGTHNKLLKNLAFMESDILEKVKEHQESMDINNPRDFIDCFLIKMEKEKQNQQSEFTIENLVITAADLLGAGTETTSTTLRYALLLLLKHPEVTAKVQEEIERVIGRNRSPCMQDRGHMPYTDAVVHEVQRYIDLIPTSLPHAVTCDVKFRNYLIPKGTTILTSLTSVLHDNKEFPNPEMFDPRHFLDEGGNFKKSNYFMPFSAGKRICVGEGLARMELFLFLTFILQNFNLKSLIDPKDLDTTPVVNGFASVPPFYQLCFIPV
Cytochrome P450 2C9, sequence (P11712 whole entry): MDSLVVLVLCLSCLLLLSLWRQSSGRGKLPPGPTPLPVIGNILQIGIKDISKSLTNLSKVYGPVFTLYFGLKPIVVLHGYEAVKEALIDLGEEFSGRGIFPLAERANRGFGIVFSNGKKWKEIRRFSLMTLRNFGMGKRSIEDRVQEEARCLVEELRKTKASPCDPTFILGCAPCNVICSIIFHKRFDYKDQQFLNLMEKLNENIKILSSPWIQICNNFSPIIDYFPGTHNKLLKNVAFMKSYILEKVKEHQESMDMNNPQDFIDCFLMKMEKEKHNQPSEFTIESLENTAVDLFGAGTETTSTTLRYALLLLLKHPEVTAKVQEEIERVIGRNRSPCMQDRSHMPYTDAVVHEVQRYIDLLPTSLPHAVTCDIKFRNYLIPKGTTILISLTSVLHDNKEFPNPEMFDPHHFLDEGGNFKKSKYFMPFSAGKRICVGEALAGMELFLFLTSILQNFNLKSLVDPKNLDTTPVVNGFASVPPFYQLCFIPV

Nc1nc2ccc(OCC(F)(F)F)nc2n1CC(O)c1ccc(C(F)(F)F)cc1Cl (racemic)
hepatocyte CLint [1]: 36 µL/min/1e6 cells
selectivity ratio [2]: 232
IC50 [3]: > 33300 nM
IC50 (Plasmodium falciparum [4]): 16.4 nM
IC50 (Plasmodium falciparum [5]): 62 nM
IC50 (Plasmodium falciparum [6]): 135 nM
IC50 (Plasmodium falciparum [7]): 178 nM
IC50 (Plasmodium falciparum [8]): 10 nM
IC50 (Plasmodium falciparum [9]): 24.6 nM
microsomal CLint [10]: 21 µL/min/mg
IC50 (Plasmodium falciparum [11]): 34.1 nM
IC50 (Plasmodium falciparum [12]): 12 nM
IC50 (Plasmodium falciparum [13]): 43 nM
IC50 (Plasmodium falciparum [14]): 11.8 nM
Activity (Plasmodium falciparum [15]): Active
IC50 (Plasmodium falciparum [16]): 19.7 nM
microsomal CLint [17]: 45 µL/min/mg

Nc1nc2ccc(OC3CCOC3)nc2n1CC(O)c1ccc(C(F)(F)F)cc1Cl (racemic)
hepatocyte CLint [1]: 105 µL/min/1e6 cells
selectivity ratio [2]: 800
IC50 [3]: 16600 nM
IC50 (Cytochrome P450 2D6): 12500 nM
IC50 (Plasmodium falciparum [8]): 18 nM
IC50 (Cytochrome P450 2C9): > 30000 nM
IC50 (Cytochrome P450 2C19): 780 nM
IC50 (Cytochrome P450 1A2): > 30000 nM
microsomal CLint [10]: 90 µL/min/mg
IC50 (Cytochrome P450 3A4): 2400 nM
fraction unbound [18]: 0.026
IC50 (Plasmodium falciparum [13]): 25 nM
logD [19]: 3.7
Activity (Plasmodium falciparum [15]): Active
microsomal CLint [17]: 76 µL/min/mg
solubility [20]: 160 µM (≈ 70.9 µg/mL)
